Patent publication US4698327A, “Novel glycopeptide derivatives” (priority 1986, dated 1987)
≈ marks a conversion by molar mass, not a printed value.

Assays:
[1] = test system: Haemophilus influenzae 76; test: MIC, standard agar-dilution assay; format: cell-based
[2] = test system: Streptococcus pyogenes C203; test: MIC, standard agar-dilution assay; format: cell-based
[3] = test system: Streptococcus pyogenes; conditions: Streptococcus pyogenes infection in mice; two doses, administered subcutaneously
[4] = test system: Staphylococcus aureus; conditions: Staphylococcus aureus infection in mice; two doses, administered subcutaneously
[5] = test system: Staphylococcus epidermidis EPI1; format: cell-based; conditions: agar dilution
[6] = test system: Staphylococcus aureus S13E; format: cell-based; conditions: agar dilution
[7] = test system: Klebsiella pneumoniae X26; test: MIC, standard agar-dilution assay; format: cell-based
[8] = test system: Staphylococcus aureus NRRL B313; conditions: agar dilution
[9] = test system: Escherichia coli TEM; test: MIC, standard agar-dilution assay; format: cell-based
[10] = test system: Streptococcus pneumoniae Park 1; format: cell-based; conditions: agar dilution
[11] = test system: Escherichia coli N10; test: MIC, standard agar-dilution assay; format: cell-based
[12] = test system: Escherichia coli EC14; test: MIC, standard agar-dilution assay; format: cell-based
[13] = test system: Staphylococcus epidermidis 222; test: MIC, standard agar-dilution assay; format: cell-based
[14] = test system: Streptococcus pneumoniae; conditions: Streptococcus pneumoniae infection in mice; two doses, administered subcutaneously
[15] = test system: Streptococcus faecium ATCC 9790; test: MIC, standard agar-dilution assay; format: cell-based
[16] = test system: Staphylococcus aureus X400; test: MIC, standard agar-dilution assay; format: cell-based
[17] = test system: Haemophilus influenzae C.L.; test: MIC, standard agar-dilution assay; format: cell-based
[18] = test system: Klebsiella pneumoniae KAE; test: MIC, standard agar-dilution assay; format: cell-based
[19] = test system: Klebsiella pneumoniae X68; test: MIC, standard agar-dilution assay; format: cell-based
[20] = test system: Staphylococcus aureus V41; test: MIC, standard agar-dilution assay; format: cell-based
[21] = test system: Streptococcus sp. group D 2041; test: MIC, standard agar-dilution assay; format: cell-based

Compound	MIC [1] [µg/mL]	MIC [2] [µg/mL]	ED50 [3] [mg/kg/2]	ED50 [4] [mg/kg/2]	MIC [5] [µg/mL]	MIC [6] [µg/mL]	MIC [7] [µg/mL]	MIC [8] [µg/mL]	MIC [9] [µg/mL]	MIC [10] [µg/mL]	MIC [11] [µg/mL]	MIC [12] [µg/mL]	MIC [13] [µg/mL]	ED50 [14] [mg/kg/2]	MIC [15] [µg/mL]	MIC [16] [µg/mL]	MIC [17] [µg/mL]	MIC [18] [µg/mL]	MIC [19] [µg/mL]	MIC [20] [µg/mL]	other results
CCCCc1ccc(CNC2(C)CC(OC3C(Oc4c5cc6cc4Oc4ccc(cc4Cl)C(O)C4NC(=O)C(NC(=O)C6NC(=O)C(CC(N)=O)NC(=O)C(NC(=O)C(CC(C)C)NC)C(O)c6ccc(c(Cl)c6)O5)c5ccc(O)c(c5)-c5c(O)cc(O)cc5C(C(=O)O)NC4=O)OC(CO)C(O)C3O)OC(C)C2O)cc1 (stereo not drawn) [Example 81, N^van --( -p-butylbenzyl)vancomycin]	32 (≈ 20.1 µM)	0.06 (≈ 0.0376 µM)	1.16	0.74	0.25 (≈ 0.157 µM)	0.06 (≈ 0.0376 µM)	> 128	0.06 (≈ 0.0376 µM)	> 128	0.06 (≈ 0.0376 µM)	> 128	> 128	0.125 (≈ 0.0783 µM)	1.26	0.06 (≈ 0.0376 µM)	0.125 (≈ 0.0783 µM)	32 (≈ 20.1 µM)	> 128	> 128	0.125 (≈ 0.0783 µM)	MIC [21]: 0.25 µg/mL (≈ 0.157 µM)
CCCCOc1ccc(CNC2(C)CC(OC3C(Oc4c5cc6cc4Oc4ccc(cc4Cl)C(O)C4NC(=O)C(NC(=O)C6NC(=O)C(CC(N)=O)NC(=O)C(NC(=O)C(CC(C)C)NC)C(O)c6ccc(c(Cl)c6)O5)c5ccc(O)c(c5)-c5c(O)cc(O)cc5C(C(=O)O)NC4=O)OC(CO)C(O)C3O)OC(C)C2O)cc1 (stereo not drawn) [Example 84, N^van --( -p-butoxybenzyl)vancomycin]	64 (≈ 39.7 µM)	0.06 (≈ 0.0372 µM)	0.69	0.65	0.25 (≈ 0.155 µM)	0.125 (≈ 0.0776 µM)	> 128	0.125 (≈ 0.0776 µM)	> 128	0.03 (≈ 0.0186 µM)	> 128	> 128	0.25 (≈ 0.155 µM)	1.14	0.125 (≈ 0.0776 µM)	0.125 (≈ 0.0776 µM)	32 (≈ 19.9 µM)	> 128	> 128	0.125 (≈ 0.0776 µM)	MIC [21]: 0.25 µg/mL (≈ 0.155 µM)
CCCCCCCCc1ccc(CNC2(C)CC(OC3C(Oc4c5cc6cc4Oc4ccc(cc4Cl)C(O)C4NC(=O)C(NC(=O)C6NC(=O)C(CC(N)=O)NC(=O)C(NC(=O)C(CC(C)C)NC)C(O)c6ccc(c(Cl)c6)O5)c5ccc(O)c(c5)-c5c(O)cc(O)cc5C(C(=O)O)NC4=O)OC(CO)C(O)C3O)OC(C)C2O)cc1 (stereo not drawn) [Example 93, N^van --( -p-octylbenzyl)vancomycin]	> 128	0.25 (≈ 0.151 µM)	0.62	0.19	2 (≈ 1.21 µM)	0.5 (≈ 0.303 µM)	> 128	0.5 (≈ 0.303 µM)	> 128	0.25 (≈ 0.151 µM)	> 128	> 128	1 (≈ 0.605 µM)	0.23	0.25 (≈ 0.151 µM)	1 (≈ 0.605 µM)	> 128	> 128	> 128	1 (≈ 0.605 µM)	MIC [21]: 0.5 µg/mL (≈ 0.303 µM)
CCCCCCCCOc1ccc(CNC2(C)CC(OC3C(Oc4c5cc6cc4Oc4ccc(cc4Cl)C(O)C4NC(=O)C(NC(=O)C6NC(=O)C(CC(N)=O)NC(=O)C(NC(=O)C(CC(C)C)NC)C(O)c6ccc(c(Cl)c6)O5)c5ccc(O)c(c5)-c5c(O)cc(O)cc5C(C(=O)O)NC4=O)OC(CO)C(O)C3O)OC(C)C2O)cc1 (stereo not drawn) [Example 94, N^van --( -p-octyloxybenzyl)vancomycin]	> 128	0.25 (≈ 0.15 µM)	0.66	> 0.12	1 (≈ 0.6 µM)	0.5 (≈ 0.3 µM)	> 128	0.25 (≈ 0.15 µM)	> 128	0.25 (≈ 0.15 µM)	> 128	> 128	0.5 (≈ 0.3 µM)	0.2	0.25 (≈ 0.15 µM)	0.5 (≈ 0.3 µM)	> 128	> 128	> 128	0.5 (≈ 0.3 µM)	MIC [21]: 0.25 µg/mL (≈ 0.15 µM)
